Test results as given in the NIST ThermoML archive (doi:10.1016/j.fluid.2005.07.017).
Numbers after ± are expanded uncertainties.

Assay: xn = mol fraction of the nth substance listed
Conditions: Liquid, Vibrating tube method

With `c1ccsc1` [thiophene] + O=C=O the mass density (342.91 K, 11019 kPa, x2 = 0.3818) was 967.88 ± 0.43 kg/m3, the mass density (342.91 K, 11995 kPa, x2 = 0.3818) was 969.76 ± 0.43 kg/m3 and the mass density (342.91 K, 12980 kPa, x2 = 0.3818) was 971.64 ± 0.43 kg/m3. The mass density (342.91 K, 14033 kPa, x2 = 0.3818) was 973.6 ± 0.43 kg/m3, the mass density (342.91 K, 15024 kPa, x2 = 0.3818) was 975.41 ± 0.43 kg/m3 and the mass density (342.91 K, 15980 kPa, x2 = 0.3818) was 977.13 ± 0.43 kg/m3. The mass density (342.91 K, 17026 kPa, x2 = 0.3818) was 978.96 ± 0.43 kg/m3, the mass density (342.91 K, 18022 kPa, x2 = 0.3818) was 980.7 ± 0.43 kg/m3 and the mass density (342.91 K, 19019 kPa, x2 = 0.3818) was 982.41 ± 0.42 kg/m3. For the same compound, the mass density (343.15 K, 101 kPa, x2 = 0) was 1002.15 ± 0.44 kg/m3, the mass density (352.59 K, 4979 kPa, x2 = 0.199) was 974.07 ± 0.43 kg/m3 and the mass density (352.59 K, 5990 kPa, x2 = 0.199) was 975.64 ± 0.43 kg/m3. The mass density (352.59 K, 7029 kPa, x2 = 0.199) was 977.28 ± 0.43 kg/m3, the mass density (352.59 K, 8024 kPa, x2 = 0.199) was 978.8 ± 0.43 kg/m3 and the mass density (352.59 K, 9035 kPa, x2 = 0.199) was 980.29 ± 0.43 kg/m3. For the same compound, the mass density (352.59 K, 9983 kPa, x2 = 0.199) was 981.7 ± 0.43 kg/m3, the mass density (352.59 K, 11018 kPa, x2 = 0.199) was 983.2 ± 0.43 kg/m3 and the mass density (352.59 K, 12014 kPa, x2 = 0.199) was 984.65 ± 0.43 kg/m3. The mass density (352.59 K, 13125 kPa, x2 = 0.199) was 986.24 ± 0.43 kg/m3, the mass density (352.59 K, 14000 kPa, x2 = 0.199) was 987.44 ± 0.43 kg/m3 and the mass density (352.59 K, 15014 kPa, x2 = 0.199) was 988.92 ± 0.43 kg/m3. For the same compound, the mass density (352.59 K, 15934 kPa, x2 = 0.199) was 990.14 ± 0.43 kg/m3, the mass density (352.59 K, 17055 kPa, x2 = 0.199) was 991.66 ± 0.43 kg/m3 and the mass density (352.59 K, 17954 kPa, x2 = 0.199) was 992.83 ± 0.43 kg/m3. The mass density (352.59 K, 19034 kPa, x2 = 0.199) was 994.28 ± 0.43 kg/m3, the mass density (352.59 K, 20005 kPa, x2 = 0.199) was 995.52 ± 0.43 kg/m3 and the mass density (352.67 K, 1064 kPa, x2 = 0) was 992.39 ± 0.44 kg/m3. The mass density (352.67 K, 2003 kPa, x2 = 0) was 993.54 ± 0.44 kg/m3, the mass density (352.67 K, 3024 kPa, x2 = 0) was 994.79 ± 0.44 kg/m3 and the mass density (352.67 K, 4003 kPa, x2 = 0) was 995.98 ± 0.44 kg/m3. The mass density (352.67 K, 5048 kPa, x2 = 0) was 997.22 ± 0.43 kg/m3, the mass density (352.67 K, 6013 kPa, x2 = 0) was 998.36 ± 0.43 kg/m3 and the mass density (352.67 K, 7013 kPa, x2 = 0) was 999.51 ± 0.43 kg/m3. It also gave a mass density (352.67 K, 8050 kPa, x2 = 0) of 1000.73 ± 0.43 kg/m3, a mass density (352.67 K, 9018 kPa, x2 = 0) of 1001.82 ± 0.43 kg/m3 and a mass density (352.67 K, 10003 kPa, x2 = 0) of 1002.93 ± 0.43 kg/m3. It also gave a mass density (352.67 K, 11003 kPa, x2 = 0) of 1004.07 ± 0.43 kg/m3, a mass density (352.67 K, 12004 kPa, x2 = 0) of 1005.16 ± 0.43 kg/m3 and a mass density (352.67 K, 12998 kPa, x2 = 0) of 1006.25 ± 0.44 kg/m3. The mass density (352.67 K, 14005 kPa, x2 = 0) was 1007.34 ± 0.44 kg/m3, the mass density (352.67 K, 15038 kPa, x2 = 0) was 1008.46 ± 0.44 kg/m3 and the mass density (352.67 K, 16006 kPa, x2 = 0) was 1009.49 ± 0.44 kg/m3. The mass density (352.67 K, 17027 kPa, x2 = 0) was 1010.58 ± 0.44 kg/m3, the mass density (352.67 K, 18001 kPa, x2 = 0) was 1011.6 ± 0.44 kg/m3 and the mass density (352.67 K, 19031 kPa, x2 = 0) was 1012.65 ± 0.44 kg/m3. For the same compound, the mass density (352.67 K, 20017 kPa, x2 = 0) was 1013.74 ± 0.44 kg/m3, the mass density (352.85 K, 7014 kPa, x2 = 0.3818) was 941.65 ± 0.43 kg/m3 and the mass density (352.85 K, 8124 kPa, x2 = 0.3818) was 944.24 ± 0.43 kg/m3. The mass density (352.85 K, 9071 kPa, x2 = 0.3818) was 946.38 ± 0.43 kg/m3, the mass density (352.85 K, 10020 kPa, x2 = 0.3818) was 948.55 ± 0.43 kg/m3 and the mass density (352.85 K, 11000 kPa, x2 = 0.3818) was 950.66 ± 0.43 kg/m3. It also gave a mass density (352.85 K, 12010 kPa, x2 = 0.3818) of 952.84 ± 0.43 kg/m3, a mass density (352.85 K, 13005 kPa, x2 = 0.3818) of 954.93 ± 0.43 kg/m3 and a mass density (352.85 K, 14021 kPa, x2 = 0.3818) of 956.99 ± 0.43 kg/m3. It also gave a mass density (352.85 K, 15021 kPa, x2 = 0.3818) of 958.98 ± 0.43 kg/m3, a mass density (352.85 K, 16002 kPa, x2 = 0.3818) of 960.92 ± 0.43 kg/m3 and a mass density (352.85 K, 17007 kPa, x2 = 0.3818) of 962.89 ± 0.43 kg/m3. For the same compound, the mass density (352.85 K, 18002 kPa, x2 = 0.3818) was 964.77 ± 0.43 kg/m3, the mass density (352.85 K, 19018 kPa, x2 = 0.3818) was 966.66 ± 0.43 kg/m3 and the mass density (353.15 K, 101 kPa, x2 = 0) was 989.76 ± 0.44 kg/m3. The mass density (362.38 K, 5067 kPa, x2 = 0.199) was 959.54 ± 0.43 kg/m3, the mass density (362.38 K, 6020 kPa, x2 = 0.199) was 961.18 ± 0.43 kg/m3 and the mass density (362.38 K, 7006 kPa, x2 = 0.199) was 962.87 ± 0.43 kg/m3. For the same compound, the mass density (362.38 K, 8052 kPa, x2 = 0.199) was 964.61 ± 0.44 kg/m3, the mass density (362.38 K, 9004 kPa, x2 = 0.199) was 966.16 ± 0.44 kg/m3 and the mass density (362.38 K, 9993 kPa, x2 = 0.199) was 967.76 ± 0.44 kg/m3. It also gave a mass density (362.38 K, 11055 kPa, x2 = 0.199) of 969.42 ± 0.43 kg/m3, a mass density (362.38 K, 12043 kPa, x2 = 0.199) of 970.93 ± 0.43 kg/m3 and a mass density (362.38 K, 13005 kPa, x2 = 0.199) of 972.44 ± 0.43 kg/m3. The mass density (362.38 K, 14008 kPa, x2 = 0.199) was 973.98 ± 0.43 kg/m3, the mass density (362.38 K, 14980 kPa, x2 = 0.199) was 975.41 ± 0.43 kg/m3 and the mass density (362.38 K, 16011 kPa, x2 = 0.199) was 976.94 ± 0.43 kg/m3. For the same compound, the mass density (362.38 K, 17005 kPa, x2 = 0.199) was 978.39 ± 0.43 kg/m3, the mass density (362.38 K, 18009 kPa, x2 = 0.199) was 979.82 ± 0.43 kg/m3 and the mass density (362.38 K, 19011 kPa, x2 = 0.199) was 981.22 ± 0.43 kg/m3. The mass density (362.38 K, 20040 kPa, x2 = 0.199) was 982.7 ± 0.43 kg/m3, the mass density (362.51 K, 1007 kPa, x2 = 0) was 979.8 ± 0.44 kg/m3 and the mass density (362.51 K, 2022 kPa, x2 = 0) was 981.13 ± 0.44 kg/m3. For the same compound, the mass density (362.51 K, 3029 kPa, x2 = 0) was 982.49 ± 0.44 kg/m3, the mass density (362.51 K, 4004 kPa, x2 = 0) was 983.74 ± 0.44 kg/m3 and the mass density (362.51 K, 5006 kPa, x2 = 0) was 985.01 ± 0.44 kg/m3. It also gave a mass density (362.51 K, 6003 kPa, x2 = 0) of 986.27 ± 0.43 kg/m3, a mass density (362.51 K, 6999 kPa, x2 = 0) of 987.5 ± 0.43 kg/m3 and a mass density (362.51 K, 7993 kPa, x2 = 0) of 988.73 ± 0.43 kg/m3. For the same compound, the mass density (362.51 K, 9007 kPa, x2 = 0) was 989.99 ± 0.43 kg/m3, the mass density (362.51 K, 9993 kPa, x2 = 0) was 991.16 ± 0.43 kg/m3 and the mass density (362.51 K, 10997 kPa, x2 = 0) was 992.36 ± 0.43 kg/m3. For the same compound, the mass density (362.51 K, 11993 kPa, x2 = 0) was 993.56 ± 0.43 kg/m3, the mass density (362.51 K, 12838 kPa, x2 = 0) was 994.53 ± 0.43 kg/m3 and the mass density (362.51 K, 14038 kPa, x2 = 0) was 995.94 ± 0.43 kg/m3. For the same compound, the mass density (362.51 K, 15044 kPa, x2 = 0) was 997.1 ± 0.43 kg/m3, the mass density (362.51 K, 16029 kPa, x2 = 0) was 998.18 ± 0.43 kg/m3 and the mass density (362.51 K, 17006 kPa, x2 = 0) was 999.27 ± 0.43 kg/m3. It also gave a mass density (362.51 K, 18016 kPa, x2 = 0) of 1000.4 ± 0.43 kg/m3, a mass density (362.51 K, 18987 kPa, x2 = 0) of 1001.47 ± 0.43 kg/m3 and a mass density (362.73 K, 8081 kPa, x2 = 0.3818) of 925.8 ± 0.44 kg/m3. The mass density (362.73 K, 9009 kPa, x2 = 0.3818) was 928.21 ± 0.43 kg/m3, the mass density (362.73 K, 10010 kPa, x2 = 0.3818) was 930.72 ± 0.43 kg/m3 and the mass density (362.73 K, 11009 kPa, x2 = 0.3818) was 933.15 ± 0.43 kg/m3. It also gave a mass density (362.73 K, 11996 kPa, x2 = 0.3818) of 935.49 ± 0.43 kg/m3, a mass density (362.73 K, 13008 kPa, x2 = 0.3818) of 937.87 ± 0.43 kg/m3 and a mass density (362.73 K, 14001 kPa, x2 = 0.3818) of 940.11 ± 0.43 kg/m3. The mass density (362.73 K, 15006 kPa, x2 = 0.3818) was 942.32 ± 0.43 kg/m3, the mass density (362.73 K, 16002 kPa, x2 = 0.3818) was 944.47 ± 0.43 kg/m3 and the mass density (362.73 K, 17016 kPa, x2 = 0.3818) was 946.62 ± 0.43 kg/m3. For the same compound, the mass density (362.73 K, 18023 kPa, x2 = 0.3818) was 948.72 ± 0.43 kg/m3 and the mass density (362.73 K, 19014 kPa, x2 = 0.3818) was 950.73 ± 0.43 kg/m3.
